Test results published in patent US20020120102A1, “Use of dendroaspin as a scaffold for non-dendroaspin domains” (priority 2000, published 2002).
Ends that are not written are not given here.

System: washed platelets
Assay: ADP-induced platelet aggregation (light transmission)
Type: cell-based
Details: 10 μM ADP, 1.67 mg/ml fibrinogen, washed human platelets
Protocol: Measurement of platelet aggregation—Platelet aggregation was measured by the increase in light transmission as described previously (Lu et al. (1993), supra; Lu et al. (1994) Biochem. J. 304, 929-936). Briefly, platelet rich plasma (PRP) was prepared from citrated human blood, obtained from healthy individuals, by centrifugation at 200×g for 15 min. Washed platelets were prepared from PRP and resuspended in adhesion/aggregation buffer (145 mM NaCl, 5 mM KCl, 1 mM MgCl2, 2 mM CaCl2, 10 mM glucose, 3.5 mg/ml BSA and 10 mM HEPES, pH 7.35) and adjusted to a count of 3×10^8/ml. Platelet aggregation (320 μl incubations) was induced with 10 μM ADP in the presence of 1.67 mg/ml fibrinogen and measured using a Payton Dual-Aggregometer linked to a chart recorder.

**Q.** How did the “inhibition of ADP-induced platelet aggregation” value turn out when “KGD-dendroaspin: dendroaspin scaffold in which the native RGD motif is replaced by KGD; recombinant, expressed in E. coli (RICYNHLGTKPPTTETCQEDSCYKNIWTFDNIIRRGCGCFTPKGDMPGPYCCESDKCNL; ends and bridges not checked; cysteine pairing not given here)” was run?
**A.** potent inhibition
